Source: patent publication US20110183963A1 (priority 2009, published 2011)
Values belong to the molecule of their own block, whether it stands above or below them.

Experiments:
human NET = human NET (Homo sapiens, UniProt P23975); conditions: relative to quetiapine; cited from earlier work
5-HT1A receptor = target: T1, 5-HT1A receptor (Homo sapiens, UniProt P08908); conditions: relative to quetiapine; cited from earlier work
T1 sequence (P08908 1-422): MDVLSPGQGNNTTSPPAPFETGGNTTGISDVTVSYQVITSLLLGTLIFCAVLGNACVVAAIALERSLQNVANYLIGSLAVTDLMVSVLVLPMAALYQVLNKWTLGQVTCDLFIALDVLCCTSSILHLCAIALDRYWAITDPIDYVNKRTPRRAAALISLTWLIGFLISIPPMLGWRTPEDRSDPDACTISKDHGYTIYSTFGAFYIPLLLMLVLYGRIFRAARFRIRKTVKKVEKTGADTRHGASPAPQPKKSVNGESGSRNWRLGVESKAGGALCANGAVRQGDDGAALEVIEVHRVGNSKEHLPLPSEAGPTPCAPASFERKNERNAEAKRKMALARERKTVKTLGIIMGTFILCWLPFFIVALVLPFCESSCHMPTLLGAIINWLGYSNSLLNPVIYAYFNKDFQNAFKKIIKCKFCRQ

[1] = to be dosed efficiently via oral gavage in rats
leptin = conditions: chronic oral administration for a period of 6 weeks; cited from earlier work
[2] = cited from earlier work

human NET, sequence (P23975 whole entry): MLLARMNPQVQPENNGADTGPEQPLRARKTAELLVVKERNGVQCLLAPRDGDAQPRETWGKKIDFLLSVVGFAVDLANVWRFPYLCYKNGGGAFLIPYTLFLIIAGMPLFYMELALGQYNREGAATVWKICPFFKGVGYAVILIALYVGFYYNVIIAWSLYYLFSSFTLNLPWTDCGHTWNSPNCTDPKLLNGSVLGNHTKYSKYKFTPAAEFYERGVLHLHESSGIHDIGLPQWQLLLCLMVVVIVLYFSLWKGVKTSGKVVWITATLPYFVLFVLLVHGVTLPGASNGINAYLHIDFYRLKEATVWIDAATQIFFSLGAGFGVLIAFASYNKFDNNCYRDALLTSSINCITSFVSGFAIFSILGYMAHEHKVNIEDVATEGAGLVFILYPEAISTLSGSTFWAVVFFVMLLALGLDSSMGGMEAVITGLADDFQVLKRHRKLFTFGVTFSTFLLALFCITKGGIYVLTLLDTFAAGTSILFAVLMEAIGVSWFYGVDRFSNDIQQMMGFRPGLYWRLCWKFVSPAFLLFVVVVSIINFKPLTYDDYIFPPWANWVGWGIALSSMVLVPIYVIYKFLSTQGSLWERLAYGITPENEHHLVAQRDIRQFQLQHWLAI

Compound: c1ccc2c(c1)N=C(N1CCNCC1)c1ccccc1S2 [N-desalkyl-quetiapine, 4-(dibenzo[b,f][1,4]thiazepin-11-yl)piperazine]
higher avidity for inhibiting human NET than quetiapine itself (human NET): about 100 fold | more potent than quetiapine at the 5-HT1A receptor (5-HT1A receptor): 10 fold

solubility for oral gavage dosing [1]: not soluble enough
Compound: OCCOCCN1CCN(C2=Nc3ccccc3Sc3ccccc32)CC1 [fumarate]

Compound: OCCOCCN1CCN(C2=Nc3ccccc3Sc3ccccc32)CC1 [quetiapine, 2-(2-(4-(dibenzo[b,f][1,4]thiazepin-11-yl)piperazin-1-yl)ethoxy)ethanol]
increase in leptin release (leptin): about 37% | Absolute bioavailability ([2]; estimated): 9% | terminal half-life time for the drug's elimination ([2]; in vivo): about 7 hours
